Reference: patent US10377791B2, “Therapeutically active estratrienthiazole derivatives as inhibitors of 17 B-hydroxysteroid dehydrogenase, type 1” (FORENDO PHARMA LTD, priority 2013, dated 2019)

What was measured:
[1] = target: T1, recombinant human 17β-HSD1 (Homo sapiens, UniProt P14061); experiment: Inhibition of recombinant human 17β-HSD1; type: biochemical; conditions: inhibitor at 1 μM; 30 nM estrone, 1 mM NADPH, 30 min at RT; read-out: 17β-HDS1 Inhibition % at 1 μM
T1 construct: made in house; host or cells: Sd9 (Sf9) insect cells, baculovirus (Bac to Bac Expression System)
T1 sequence (P14061 1-328): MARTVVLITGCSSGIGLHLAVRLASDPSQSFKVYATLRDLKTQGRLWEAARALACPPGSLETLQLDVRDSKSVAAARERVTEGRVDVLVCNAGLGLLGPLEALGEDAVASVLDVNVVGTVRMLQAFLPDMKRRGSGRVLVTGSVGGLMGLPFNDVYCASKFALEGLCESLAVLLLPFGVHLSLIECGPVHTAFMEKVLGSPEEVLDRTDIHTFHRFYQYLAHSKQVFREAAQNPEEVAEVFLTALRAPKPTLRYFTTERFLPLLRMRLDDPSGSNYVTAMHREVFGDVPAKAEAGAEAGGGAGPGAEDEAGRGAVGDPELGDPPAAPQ
Protocol: Recombinant baculovirus was generated by the “Bac to Bac Expression System” (Invitrogen). Recombinant bacmid was transfected to Sd9 insect cells using “Cellfectin Reagent” (Invitrogen). 60 h later cells were harvested; the microsomal fraction was isolated as described by Puranen, T. J., Poutanen, M. H., Peltoketo, H. E., Vihko, P. T. and Vihko, R. K. (1994) Site-directed mutagenesis of the putative active site of human 17 β-hydroxysteroid dehydrogenase type 1. Biochem. J. 304: 289-293. Aliquots were stored frozen until determination of enzymatic activity.
Recombinant protein (1 μg/ml) was incubated in 20 mM KH2PO4 pH 7.4 with 30 nM estrone (including 800 000 cpm/ml of ^3H-estrone) and 1 mM NADPH for 30 min at RT, in the presence of the potential inhibitor at concentrations 1 μM or 0.1 μM. Inhibitor stock solutions were prepared in DMSO. Final concentration of DMSO was adjusted to 1% in all samples. The enzyme reaction was stopped by addition of 10% trichloroacetic acid (final concentration). Samples were centrifuged in a microtiter plate at 4000 rpm for 10 min. Supernatants were applied to reverse phase HPLC on a Waters Symmetry C18 column, equipped with a Waters Sentry Guard column. Isocratic HPLC runs were performed at RT at a flow rate of 1 ml/min in acetonitrile:water 48:52 as running solvent. Radioactivity was monitored in the eluate by a Packard Flow Scintillation Analyzer. Total radioactivity for estrone and estradiol were determined in each sample and percent conversion of estrone to estradiol was calculated according to the following formula:
(§1) [formula] Percent inhibition was calculated flowingly: % inhibition=100−% conversion

[2] = target: T2, recombinant human 17β-HSD2 (Homo sapiens, UniProt P37059); experiment: Inhibition of recombinant human 17β-HSD2; type: biochemical; conditions: inhibitor at 1 μM; 50 nM estradiol, 1 mM NADH, 30 min at RT; read-out: 17β-HSD2 Inhibition % at 1 μM
T2 construct: made in house; host or cells: Sd9 (Sf9) insect cells, baculovirus (Bac to Bac Expression System)
T2 sequence (P37059 1-387): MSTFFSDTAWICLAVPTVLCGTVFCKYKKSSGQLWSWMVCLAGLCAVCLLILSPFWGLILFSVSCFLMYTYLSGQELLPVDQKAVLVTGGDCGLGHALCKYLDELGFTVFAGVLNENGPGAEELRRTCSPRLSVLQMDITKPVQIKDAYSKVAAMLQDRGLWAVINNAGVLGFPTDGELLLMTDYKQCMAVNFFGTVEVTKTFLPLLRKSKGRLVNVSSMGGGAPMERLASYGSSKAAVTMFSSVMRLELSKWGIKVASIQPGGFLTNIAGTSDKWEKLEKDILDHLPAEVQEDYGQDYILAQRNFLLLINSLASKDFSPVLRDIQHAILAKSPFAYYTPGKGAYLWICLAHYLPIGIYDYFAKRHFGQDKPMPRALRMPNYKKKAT
Protocol: Similarly to 17β-HSD1 the Recombinant baculovirus was generated by the “Bac to Bac Expression System” (Invitrogen). Recombinant bacmid was transfected to Sd9 insect cells using “Cellfectin Reagent” (Invitrogen). 60 h later cells were harvested and supernatant were fractionated by the following protocol: • cells were dissolved into 40 ml of A-buffer (40 mM TRIS, pH8.0, 20% glycerol, 20 μM NAD, 0.4 mM PMSF, 150 mM NaCl, 0.5% dodecyl-β-maltoside+protease inhibitor cocktail) • cells were sonicated • lysate was incubated on ice for 15 min • lysate was centrifuged 5000 rpm 15 min, +4° C. • centrifugation of the supernatant 180 000 g 30 min, +4° C. • pellet was dissolved into 8 ml of A-buffer • not resuspended material was removed by centrifugation 5000 rpm 15 min, +4° C. • the clear supernatant was divided into 100 μl aliquots and were stored frozen until determination of enzymatic activity.
The amount of 17β-HSD2 was analysed by immunoblotting and total protein concentration of each extract batch was determined.
Recombinant protein (4 μg/ml) was incubated in 20 mM KH2PO4 pH 8.5 with 50 nM estradiol (including 800 000 cpm/ml of ^3H-estradiol) and 1 mM NADH for 30 min at RT, in the presence of the potential inhibitor at concentrations 1 μM or 0.1 μM. Inhibitor stock solutions were prepared in DMSO. Final concentration of DMSO was adjusted to 1% in all samples. The enzyme reaction was stopped by addition of 10% trichloroacetic acid (final concentration). Samples were centrifuged in a microtiter plate at 4000 rpm for 10 min. Supernatants were applied to reverse phase HPLC on a Waters Symmetry C18 column, equipped with a Waters Sentry Guard column. Isocratic HPLC runs were performed at RT at a flow rate of 1 ml/min in acetonitrile:water 48:52 as running solvent. Radioactivity was monitored in the eluate by a Packard Flow Scintillation Analyzer. Total radioactivity for estrone and estradiol were determined in each sample and percent conversion of estradiol to estrone was calculated according to the following formula:
as §1

## Cc1cnc(NC(=O)CC[C@@H]2CC(=O)[C@@]3(C)CCC4c5cc(C(C)C)c(O)cc5CCC4C23)s1 (stereo partly drawn) [Compound 32, 3-((13S,15R)-3-hydroxy-2-isopropyl-13-methyl-17-oxo-7,8,9,11,12,13,14,15,16,17-decahydro-6H-cyclopenta[a]phenanthren-15-yl)-N-(5-methylthiazol-2-yl)propanamide]
[1]
  inhibition at 1 µM: 84%
[2]
  inhibition at 1 µM: 1%

## Cc1cnc(NC(=O)CC[C@@H]2CC(=O)[C@@]3(C)CCC4c5ccc(OS(C)(=O)=O)c([N+](=O)[O-])c5CCC4C23)s1 (stereo partly drawn) [Compound 39, (13S,15R)-13-methyl-15-(3-((5-methylthiazol-2-yl)amino)-3-oxopropyl)-4-nitro-17-oxo-7,8,9,11,12,13,14,15,16,17-decahydro-6H-cyclopenta[a]phenanthren-3-yl methanesulfonate]
[1]
  inhibition at 1 µM: 96%
[2]
  inhibition at 1 µM: 1%

## COc1ccc2c(c1)CCC1C2CC[C@]2(C)C(=O)C(O)[C@@H](CCC(=O)Nc3ncc(C)s3)C12 (stereo partly drawn) [Compound 93, 3-((13S,15S)-16-hydroxy-3-methoxy-13-methyl-17-oxo-7,8,9,11,12,13,14,15,16,17-decahydro-6H-cyclopenta[a]phenanthren-15-yl)-N-(5-methylthiazol-2-yl)propanamide]
[1]
  inhibition at 1 µM: 54%
[2]
  inhibition at 1 µM: 3%

## Cc1cnc(NC(=O)CC[C@@H]2/C(=C/O)C(=O)[C@@]3(C)CCC4c5ccc(O)cc5CCC4C23)s1 (stereo partly drawn) [Compound 95, 3-{(13S,15S)-3-Hydroxy-16-[1-hydroxy-methylidene]-13-methyl-17-oxo-7,8,9,11,12,13,14,15,16,17-decahydro-6H-cyclopenta[a]phenanthren-15-yl}-N-(5-methylthiazol-2-yl)propanamide]
[1]
  inhibition at 1 µM: 97%
[2]
  inhibition at 1 µM: 3%

## Cc1cnc(NC(=O)CC[C@@H]2CC(=O)[C@@]3(C)CCC4c5cc(F)c(O)c(Br)c5CCC4C23)s1 (stereo partly drawn) [Compound 72, 3-((13S,15R)-4-bromo-2-fluoro-3-hydroxy-13-methyl-17-oxo-7,8,9,11,12,13,14,15,16,17-decahydro-6H-cyclopenta[a]phenanthren-15-yl)-N-(5-methylthiazol-2-yl)propanamide]
[1]
  inhibition at 1 µM: 89%
[2]
  inhibition at 1 µM: 10%

## Cc1cnc(NC(=O)CC[C@@H]2CC(=O)[C@@]3(C)CCC4c5cccc(N)c5CCC4C23)s1 (stereo partly drawn) [Compound 89, 3-((13S,15R)-4-amino-13-methyl-17-oxo-7,8,9,11,12,13,14,15,16,17-decahydro-6H-cyclopenta[a]phenanthren-15-yl)-N-(5-methylthiazol-2-yl)propanamide]
[1]
  inhibition at 1 µM: 71%
[2]
  inhibition at 1 µM: 0%

## Cc1cnc(NC(=O)CC[C@@H]2CC(=O)[C@@]3(C)CCC4c5cc6ncoc6c(Cl)c5CCC4C23)s1 (stereo partly drawn) [Compound 77, 3-((3R,12aS)-6-chloro-12a-methyl-1-oxo-2,3,3a,3b,4,5,10b,11,12,12a-decahydro-1H-cyclopenta[7,8]phenanthro[3,2-d]oxazol-3-yl)-N-(5-methylthiazol-2-yl)propanamide]
[1]
  inhibition at 1 µM: 87%
[2]
  inhibition at 1 µM: 0%

## Cc1cnc(NC(=O)CC[C@@H]2CC(=O)[C@@]3(C)CCC4c5cccc(O)c5CCC4C23)s1 (stereo partly drawn) [Compound 90, 3-((13S,15R)-4-hydroxy-13-methyl-17-oxo-7,8,9,11,12,13,14,15,16,17-decahydro-6H-cyclopenta[a]phenanthren-15-yl)-N-(5-methylthiazol-2-yl)propanamide]
[1]
  inhibition at 1 µM: 94%
[2]
  inhibition at 1 µM: 0%

## Cc1cnc(NC(=O)CC[C@@H]2CC(=O)[C@@]3(C)CCC4c5cc(F)c(O)cc5CCC4C23)s1 (stereo partly drawn) [Compound 67, 3-((13S,15R)-2-fluoro-3-hydroxy-13-methyl-17-oxo-7,8,9,11,12,13,14,15,16,17-decahydro-6H-cyclopenta[a]phenanthren-15-yl)-N-(5-methylthiazol-2-yl)propanamide]
[1]
  inhibition at 1 µM: 98%
[2]
  inhibition at 1 µM: 6%

## Cc1cnc(NC(=O)CC[C@@H]2CC(=O)[C@@]3(C)CCC4c5c([N+](=O)[O-])ccc(O)c5CCC4C23)s1 (stereo partly drawn) [Compound 94, 3-((13S,15R)-4-hydroxy-13-methyl-1-nitro-17-oxo-7,8,9,11,12,13,14,15,16,17-decahydro-6H-cyclopenta[a]phenanthren-15-yl)-N-(5-methylthiazol-2-yl)propanamide]
[1]
  inhibition at 1 µM: 95%
[2]
  inhibition at 1 µM: 4%

## CCOC(=O)Oc1ccc2c(c1)CCC1C2CC[C@]2(C)C(=O)C[C@@H](CCC(=O)Nc3ncc(C)s3)C12 (stereo partly drawn) [Compound 20, Ethyl ((13S,15R)-13-methyl-15-(3-((5-methylthiazol-2-yl)amino)-3-oxopropyl)-17-oxo-7,8,9,11,12,13,14,15,16,17-decahydro-6H-cyclopenta[a]phenanthren-3-yl) carbonate]
[1]
  inhibition at 1 µM: 52%
[2]
  inhibition at 1 µM: 0%

## Cc1cnc(NC(=O)CC[C@@H]2CC(=O)[C@@]3(C)CCC4c5cc(C(C)(C)C)c(O)cc5CCC4C23)s1 (stereo partly drawn) [Compound 31, 3-((13S,15R)-2-(tert-butyl)-3-hydroxy-13-methyl-17-oxo-7,8,9,11,12,13,14,15,16,17-decahydro-6H-cyclopenta[a]phenanthren-15-yl)-N-(5-methylthiazol-2-yl)propanamide]
[1]
  inhibition at 1 µM: 87%
[2]
  inhibition at 1 µM: 12%

## COc1cc2c(cc1I)C1CC[C@]3(C)C(=O)C[C@@H](CCC(=O)Nc4ncc(C)s4)C3C1CC2 (stereo partly drawn) [Compound 52, 3-((13S,15R)-2-iodo-3-methoxy-13-methyl-17-oxo-7,8,9,11,12,13,14,15,16,17-decahydro-6H-cyclopenta[a]phenanthren-15-yl)-N-(5-methylthiazol-2-yl)propanamide]
[1]
  inhibition at 1 µM: 93%
[2]
  inhibition at 1 µM: 1%

## Cc1cnc(NC(=O)CC[C@@H]2CC(=O)[C@@]3(C)CCC4c5ccc(OC(=O)CN(C)C)cc5CCC4C23)s1 (stereo partly drawn) [Compound 26, Dimethylamino-acetic acid (13S,15R)-13-methyl-15-[2-(5-methylthiazol-2-ylcarbamoyl)-ethyl]-17-oxo-7,8,9,11,12,13,14,15,16,17-decahydro-6H-cyclopenta[a]phenanthren-3-yl ester]
[1]
  inhibition at 1 µM: 96%
[2]
  inhibition at 1 µM: 6%
